Experimental data reported in US9580418B2, “Bicyclic aromatic carboxamide compounds useful as Pim kinase inhibitors” (Incyte Corporation, priority 2014, dated 2017).

How the values were obtained:
Pim-1 = Pim-1 (Homo sapiens (Human), UniProt P11309); assay: Pim-1 kinase assay (Pim enzyme assays, Example A); type: biochemical; conditions: 1 mM ATP, BAD peptide substrate; read-out: PIM1 IC50
Procedure: (§1) Pim-1 and Pim-3 kinase assays-20 μL reactions were run in white 384 well polystyrene plates dotted with 0.8 μL compound/DMSO in the assay buffer (50 mM Tris, pH 7.5, 0.01% Tween-20, 5 mM mgCl2, 0.01% BSA, 5 mM DTT), containing 0.05 μM Biotin-labeled BAD peptide substrate (AnaSpec 62269), 1 mM ATP, and 2.5 pM (Pim-1, Invitrogen PV3503) or 1.25 pM (Pim-3, Millipore 14-738) enzyme for 1 h at 25° C. Reactions were stopped by addition of 10 μL STOP Buffer (150 mM Tris, pH=7.5, 150 mM NaCl, 75 mM EDTA, 0.01% Tween-20, 0.3% BSA,) supplemented with Phospho-Bad (Ser112) Antibody (Cell Signaling 9291) diluted 666-fold, and Streptavidin donor beads (PerkinElmer 6760002) along with Protein-A acceptor beads (PerkinElmer 6760137) at 15 μg/mL each. Supplementation of the STOP buffer with beads and stopping the reactions were done under reduced light. Prior to the stopping reactions STOP buffer with beads was preincubated for 1 h in the dark at room temperature. After stopping the reactions, plates were incubated for 1 h in the dark at room temperature before reading on a PHERAstar FS plate reader (BMG Labtech) under reduced light.

Pim-3 = Pim-3 (Homo sapiens (Human), UniProt Q86V86); assay: Pim-3 kinase assay (Pim enzyme assays, Example A); type: biochemical; conditions: 1 mM ATP, BAD peptide substrate; read-out: PIM3 IC50
Procedure: as §1

Pim-2 = Pim-2 (Homo sapiens (Human), UniProt Q9P1W9); assay: Pim-2 kinase assay (Pim enzyme assays, Example A); type: biochemical; conditions: 1 mM ATP, CREBtide peptide substrate; read-out: PIM2 IC50
Procedure: Pim-2 kinase assay-20 μL reactions were run in white 384 well polystyrene plates dotted with 0.8 μL compound/DMSO in the assay buffer (50 mM Tris, pH 7.5, 0.01% Tween-20, 5 mM mgCl2, 0.01% BSA, 5 mM DTT), containing 0.05 μM Fluorescein-labeled CREBtide peptide substrate (Invitrogen PV3508), 1 mM ATP, and 1 nM enzyme (Invitrogen PV3649) for 2 h at 25° C. Reactions were stopped by addition of 10 μL TR-FRET Dilution Buffer (Invitrogen PV3574) with 30 mM EDTA and 1.5 nM LanthaScreen Tb-CREB pSer133 antibody (Invitrogen PV3566). After 30 min. incubation at room temperature, plates were read on a PHERAstar FS plate reader (BMG Labtech).

pBAD in KMS.12.BM cells = assay: Pim pBAD signaling assay in KMS.12.BM cells (Example B); type: cell-based; conditions: Homo sapiens, 2.5 h incubation, pBAD ELISA
Procedure: KG-1A cells are purchased from ATCC (Manassas, Va.) and KMS.12.BM cells are purchased from NIBIO, JCRB cell bank (Tokyo, Japan) and maintained in the culture mediums recommended, RPMI, 10% FBS and IMDM 20% FBS (Mediatech, Manassas, Va.) respectively. To measure the pBAD inhibitory activity of the compounds, both cell lines are plated with the culture medium (1×10^6/well/100 μL for KG1A and 4×10^5 cells/well/in 100 μL for KMS12BM) into 96-well V bottom polypropylene plates (Matrix, Thermo Fisher, USA) and incubated 30 min. at 37° C. to normalize cell signaling from handling. Test compounds are added at an appropriate concentration range and further incubated for 2.5 h for KMS.12.BM cells and 4 h for KG1-A cells. Plates are centrifuged at 2000 RPM for 10 min. and supernatants aspirated. 100 μL lysis buffer with protease inhibitors (Cell Signaling Technologies, Danver, Mass., Sigma, St Louis Mo., EMD, USA) is added to the pellets, mixed well and set on ice for 30 min. Lysates are frozen overnight at −80° C. To measure the pBAD activity, a Cell Signaling ELISA kit (Cell Signaling Path Scan phosphor pBAD ELISA) is utilized. 50 μL of the lysate is tested per the ELISA protocol and the data analysis is performed by software on a SpectrMax5 plate reader (Molecular Devices, Sunnyvale, Calif.). IC50 determination is performed by fitting the curve of percent inhibition versus the log of the inhibitor concentration using the GraphPad Prism 5.0 software.

Pim-2, sequence (Q9P1W9 whole entry): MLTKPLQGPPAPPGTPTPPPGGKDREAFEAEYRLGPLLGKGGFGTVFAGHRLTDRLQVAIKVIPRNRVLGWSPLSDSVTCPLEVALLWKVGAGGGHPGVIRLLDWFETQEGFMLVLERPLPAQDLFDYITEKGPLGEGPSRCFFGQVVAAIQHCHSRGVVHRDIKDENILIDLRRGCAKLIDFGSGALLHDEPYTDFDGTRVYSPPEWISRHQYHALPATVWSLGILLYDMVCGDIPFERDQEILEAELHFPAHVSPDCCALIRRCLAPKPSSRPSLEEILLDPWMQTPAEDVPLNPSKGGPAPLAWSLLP
Pim-1, sequence (P11309 whole entry): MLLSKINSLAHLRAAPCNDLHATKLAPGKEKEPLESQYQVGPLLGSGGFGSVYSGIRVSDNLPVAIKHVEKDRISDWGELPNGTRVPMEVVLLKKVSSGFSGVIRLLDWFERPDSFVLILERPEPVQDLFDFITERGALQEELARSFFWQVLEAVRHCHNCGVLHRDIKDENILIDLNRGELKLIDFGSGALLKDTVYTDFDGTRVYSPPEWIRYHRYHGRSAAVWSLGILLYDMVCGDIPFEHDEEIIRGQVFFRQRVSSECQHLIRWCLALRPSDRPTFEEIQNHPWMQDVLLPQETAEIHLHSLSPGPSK

| Compound | IC50 (Pim-1) | IC50 (Pim-3) | IC50 (Pim-2) | IC50 (pBAD in KMS.12.BM cells) |
| --- | --- | --- | --- | --- |
| C[C@H]1CN(c2ccncc2NC(=O)c2ccc3ccc(N4CCN(C)CC4)cc3n2)C[C@@H](N)[C@@H]1O [Example 18, N-{4-[(3R,4R,5S)-3-Amino-4-hydroxy-5-methylpiperidin-1-yl]pyridin-3-yl}-7-(4-methylpiperazin-1-yl)quinoline-2-carboxamide] | ≤ 10 nM | ≤ 10 nM | 100 to 1000 nM | 50 to 250 nM |
| CCc1ccc2ccc(C(=O)Nc3cnccc3N3C[C@@H](N)[C@H](O)[C@@H](C)C3)nc2c1 [Example 9, N-{4-[(3R,4R,5S)-3-Amino-4-hydroxy-5-methylpiperidin-1-yl]pyridin-3-yl}-7-ethylquinoline-2-carboxamide] | ≤ 10 nM | ≤ 10 nM | 100 to 1000 nM | ≤ 50 nM |
| C[C@H]1CN(c2ccncc2NC(=O)c2ccc3ncc(N4CCOCC4)cc3n2)C[C@@H](N)[C@@H]1O [Example 8, N-{4-[(3R,4R,5S)-3-Amino-4-hydroxy-5-methylpiperidin-1-yl]pyridin-3-yl}-7-morpholin-4-yl-1,5-naphthyridine-2-carboxamide] | ≤ 10 nM | ≤ 10 nM | 100 to 1000 nM | ≤ 50 nM |
| CCN1CCN(c2ccc3ccc(C(=O)Nc4cnccc4N4C[C@H](C)C[C@H](N)C4)nc3c2)CC1=O [Example 23, N-{4-[(3S,5R)-3-Amino-5-methylpiperidin-1-yl]pyridin-3-yl}-7-(4-ethyl-3-oxopiperazin-1-yl)quinoline-2-carboxamide] | ≤ 10 nM | ≤ 10 nM | ≤ 100 nM | ≤ 50 nM |
| C[C@@H]1C[C@H](N)CN(c2ccncc2NC(=O)c2ccc3ccc(N4CCC(C#N)CC4)cc3n2)C1 [Example 17, N-{4-[(3S,5R)-3-Amino-5-methylpiperidin-1-yl]pyridin-3-yl}-7-(4-cyanopiperidin-1-yl)quinoline-2-carboxamide] | ≤ 10 nM | ≤ 10 nM | 100 to 1000 nM | 50 to 250 nM |
| C[C@@H]1C[C@H](N)CN(c2ccncc2NC(=O)c2ccc3ncc(C4CCOCC4)cc3n2)C1 [Example 3, N-{4-[(3S,5R)-3-Amino-5-methylpiperidin-1-yl]pyridin-3-yl}-7-(tetrahydro-2H-pyran-4-yl)-1,5-naphthyridine-2-carboxamide] | ≤ 10 nM | ≤ 10 nM | 100 to 1000 nM | ≤ 50 nM |
| COc1ccc(-c2ccc3ccc(C(=O)Nc4cnccc4N4C[C@@H](N)[C@H](O)[C@@H](C)C4)nc3c2)cn1 [Example 45, N-{4-[(3R,4R,5S)-3-Amino-4-hydroxy-5-methylpiperidin-1-yl]pyridin-3-yl}-7-(6-methoxypyridin-3-yl)quinoline-2-carboxamide] | ≤ 10 nM | ≤ 10 nM | ≤ 100 nM | ≤ 50 nM |
| C[C@H]1CN(c2ccncc2NC(=O)c2ccc3ccc(N4CCC(C(F)(F)F)C4)cc3n2)C[C@@H](N)[C@@H]1O (stereo partly drawn) [Example 28, N-{4-[(3R,4R,5S)-3-Amino-4-hydroxy-5-methylpiperidin-1-yl]pyridin-3-yl}-7-[3-(trifluoromethyl)pyrrolidin-1-yl]quinoline-2-carboxamide] | ≤ 10 nM | ≤ 10 nM | 100 to 1000 nM | – |
| CC(C)c1cnc2ccc(C(=O)Nc3cnccc3N3C[C@H](C)C[C@H](N)C3)nc2c1 [Example 2, N-{4-[(3S,5R)-3-Amino-5-methylpiperidin-1-yl]pyridin-3-yl}-7-isopropyl-1,5-naphthyridine-2-carboxamide] | ≤ 10 nM | ≤ 10 nM | ≤ 100 nM | ≤ 50 nM |
| C[C@H]1CN(c2ccncc2NC(=O)c2ccc3ccc(C4CCOCC4)cc3n2)C[C@@H](N)[C@@H]1O [Example 11, N-{4-[(3R,4R,5S)-3-Amino-4-hydroxy-5-methylpiperidin-1-yl]pyridin-3-yl}-7-(tetrahydro-2H-pyran-4-yl)quinoline-2-carboxamide] | ≤ 10 nM | ≤ 10 nM | 100 to 1000 nM | 50 to 250 nM |
| C[C@@H]1C[C@H](N)CN(c2ccncc2NC(=O)c2ccc3ccc(N4CCCC4)cc3n2)C1 [Example 31, N-{4-[(3S,5R)-3-Amino-5-methylpiperidin-1-yl]pyridin-3-yl}-7-pyrrolidin-1-ylquinoline-2-carboxamide] | ≤ 10 nM | ≤ 10 nM | 100 to 1000 nM | 50 to 250 nM |
| C[C@H]1CN(c2ccncc2NC(=O)c2ccc3ccc(N4CCC(N5CCOCC5)CC4)cc3n2)C[C@@H](N)[C@@H]1O [Example 26, N-{4-[(3R,4R,5S)-3-Amino-4-hydroxy-5-methylpiperidin-1-yl]pyridin-3-yl}-7-(4-morpholin-4-ylpiperidin-1-yl)quinoline-2-carboxamide] | ≤ 10 nM | ≤ 10 nM | ≤ 100 nM | 50 to 250 nM |
| C[C@H]1CN(c2ccncc2NC(=O)c2ccc3ccc(-c4cnn(C)c4)cc3n2)C[C@@H](N)[C@@H]1O [Example 43, N-{4-[(3R,4R,5S)-3-Amino-4-hydroxy-5-methylpiperidin-1-yl]pyridin-3-yl}-7-(1-methyl-1H-pyrazol-4-yl)quinoline-2-carboxamide] | ≤ 10 nM | ≤ 10 nM | ≤ 100 nM | ≤ 50 nM |
| CCn1cc(-c2cnc3ccc(C(=O)Nc4cnccc4N4C[C@@H](N)[C@H](O)[C@@H](C5CC5)C4)nc3c2)cn1 [Example 38, N-{4-[(3R,4R,5S)-3-Amino-5-cyclopropyl-4-hydroxypiperidin-1-yl]pyridin-3-yl}-7-(1-ethyl-1H-pyrazol-4-yl)-1,5-naphthyridine-2-carboxamide] | ≤ 10 nM | ≤ 10 nM | ≤ 100 nM | ≤ 50 nM |
| C[C@H]1CN(c2ccncc2NC(=O)c2ccc3ccc(N4CC(C)(C)C4)cc3n2)C[C@@H](N)[C@@H]1O [Example 32, N-{4-[(3R,4R,5S)-3-Amino-4-hydroxy-5-methylpiperidin-1-yl]pyridin-3-yl}-7-(3,3-dimethylazetidin-1-yl)quinoline-2-carboxamide] | ≤ 10 nM | ≤ 10 nM | 100 to 1000 nM | – |
| C[C@@H]1C[C@H](N)CN(c2ccncc2NC(=O)c2ccc3ccc(N4CCC(C(F)(F)F)C4)cc3n2)C1 (stereo partly drawn) [Example 29, N-{4-[(3S,5R)-3-Amino-5-methylpiperidin-1-yl]pyridin-3-yl}-7-[3-(trifluoromethyl)pyrrolidin-1-yl]quinoline-2-carboxamide] | ≤ 10 nM | ≤ 10 nM | 100 to 1000 nM | – |
| N[C@@H]1CN(c2ccncc2NC(=O)c2ccc3ncc(N4CCC5(CCOCC5)CC4)cc3n2)C[C@H](C2CC2)[C@H]1O [Example 40, N-{4-[(3R,4R,5S)-3-Amino-5-cyclopropyl-4-hydroxypiperidin-1-yl]pyridin-3-yl}-7-(3-oxa-9-azaspiro[5.5]undec-9-yl)-1,5-naphthyridine-2-carboxamide] | ≤ 10 nM | ≤ 10 nM | 100 to 1000 nM | – |
| C[C@@H]1C[C@H](N)CN(c2ccncc2NC(=O)c2ccc3ccc(N4CC(C)(C)C4)cc3n2)C1 [Example 33, N-{4-[(3S,5R)-3-Amino-5-methylpiperidin-1-yl]pyridin-3-yl}-7-(3,3-dimethylazetidin-1-yl)quinoline-2-carboxamide] | ≤ 10 nM | ≤ 10 nM | 1000 to 10000 nM | – |
